In ChEMBL document CHEMBL1201861, “Genomics of Drug Sensitity in Cancer screening data, Wellcome Trust Sanger Institute”:

Experiments:
Test in all cases: cells
Conditions in all cases: Homo sapiens
[1] = test system: CP66-MEL; assay type: functional, cell-based;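 further: growth inhibition of CP66-MEL cells determined in a cell viability assay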
Description: SANGER: Inhibition of human CP66-MEL cell growth in a cell viability assay.

[2] = test system: CTV-1; assay type: functional, cell-based;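 further: growth inhibition of the cell line, read out with a cell viability assay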
Description: SANGER: Inhibition of human CTV-1 cell growth in a cell viability assay.

[3] = test system: D-263MG; assay type: functional, cell-based
Description: SANGER: Inhibition of human D-263MG cell growth in a cell viability assay.

[4] = test system: DB; assay type: functional, cell-based
Description: SANGER: Inhibition of human DB cell growth in a cell viability assay.

[5] = test system: DU-4475; assay type: functional, cell-based
Description: SANGER: Inhibition of human DU-4475 cell growth in a cell viability assay.

[6] = test system: ES6; assay type: functional, cell-based;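 further: growth inhibition of human ES6 cells, read out with a cell viability assay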
Description: SANGER: Inhibition of human ES6 cell growth in a cell viability assay.

[7] = test system: EW-24; assay type: functional, cell-based;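 further: human EW-24 cancer cell line, growth inhibition read out via a cell viability assay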
Description: SANGER: Inhibition of human EW-24 cell growth in a cell viability assay.

[8] = test system: G-401; assay type: functional, cell-based
Description: SANGER: Inhibition of human G-401 cell growth in a cell viability assay.

[9] = test system: GCIY; assay type: functional, cell-based;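 further: growth inhibition of the human GCIY cell line, read out by a cell viability assay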
Description: SANGER: Inhibition of human GCIY cell growth in a cell viability assay.

[10] = test system: GI-ME-N; assay type: functional, cell-based;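 further: growth inhibition of human GI-ME-N cells, read out with a cell viability assay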
Description: SANGER: Inhibition of human GI-ME-N cell growth in a cell viability assay.

[11] = test system: HC-1; assay type: functional, cell-based;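 further: growth inhibition of HC-1 cells measured by a cell viability assay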
Description: SANGER: Inhibition of human HC-1 cell growth in a cell viability assay.

[12] = test system: HCC 2998; assay type: functional, cell-based;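 further: growth inhibition of human HCC2998 cells, measured with a cell viability read-out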
Description: SANGER: Inhibition of human HCC2998 cell growth in a cell viability assay.

[13] = test system: HO-1-N-1; assay type: functional, cell-based;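 further: growth inhibition of human HO-1-N-1 cells, read out with a cell viability assay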
Description: SANGER: Inhibition of human HO-1-N-1 cell growth in a cell viability assay.

[14] = test system: HuTu80; assay type: functional, cell-based, HUTU-80;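 further: growth inhibition of HuTu80 human cells, determined with a cell viability readout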
Description: SANGER: Inhibition of human HUTU-80 cell growth in a cell viability assay.

[15] = test system: IST-MEL1; assay type: functional, cell-based;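 further: growth inhibition of the cell line, read out with a cell viability assay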
Description: SANGER: Inhibition of human IST-MEL1 cell growth in a cell viability assay.

[16] = test system: IST-MES1; assay type: functional, cell-based;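 further: growth inhibition of IST-MES1 cells, measured with a cell viability assay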
Description: SANGER: Inhibition of human IST-MES1 cell growth in a cell viability assay.

[17] = test system: KE-37; assay type: functional, cell-based;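 further: growth inhibition of KE-37 cells, read out with a cell viability assay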
Description: SANGER: Inhibition of human KE-37 cell growth in a cell viability assay.

[18] = test system: KM-H2; assay type: functional, cell-based;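 further: growth inhibition of KM-H2 cells, read out by a cell viability assay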
Description: SANGER: Inhibition of human KM-H2 cell growth in a cell viability assay.

[19] = test system: KNS-81-FD; assay type: functional, cell-based;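 further: growth inhibition of KNS-81-FD cells, read out with a cell viability assay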
Description: SANGER: Inhibition of human KNS-81-FD cell growth in a cell viability assay.

[20] = test system: KURAMOCHI; assay type: functional, cell-based;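 further: growth inhibition of KURAMOCHI cells, read out with a cell viability assay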
Description: SANGER: Inhibition of human KURAMOCHI cell growth in a cell viability assay.

[21] = test system: LB373-MEL-D; assay type: functional, cell-based;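 further: growth inhibition of the cell line, read out in a cell viability assay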
Description: SANGER: Inhibition of human LB373-MEL-D cell growth in a cell viability assay.

[22] = test system: Lu-65; assay type: functional, cell-based;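 further: growth inhibition of Lu-65 cancer cells, read out by a cell viability assay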
Description: SANGER: Inhibition of human LU-65 cell growth in a cell viability assay.

[23] = test system: LXF-289 cell line; assay type: functional, cell-based
Description: SANGER: Inhibition of human LXF-289 cell growth in a cell viability assay.

[24] = test system: MEG-01; assay type: functional, cell-based;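 further: growth inhibition of MEG-01 cells, read out by a cell viability assay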
Description: SANGER: Inhibition of human MEG-01 cell growth in a cell viability assay.

[25] = test system: MMAC-SF; assay type: functional, cell-based;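 further: growth inhibition of human MMAC-SF cells, read out with a cell viability assay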
Description: SANGER: Inhibition of human MMAC-SF cell growth in a cell viability assay.

[26] = test system: MS-1; assay type: functional, cell-based;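 further: growth inhibition of MS-1 cells, read out by cell viability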
Description: SANGER: Inhibition of human MS-1 cell growth in a cell viability assay.

[27] = test system: MSTO-211H; assay type: functional, cell-based
Description: SANGER: Inhibition of human MSTO-211H cell growth in a cell viability assay.

[28] = test system: MV4-11; assay type: functional, cell-based, MV-4-11;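 further: cell viability readout measuring growth inhibition of human MV-4-11 cells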
Description: SANGER: Inhibition of human MV-4-11 cell growth in a cell viability assay.

[29] = test system: MZ7-mel; assay type: functional, cell-based;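 further: growth inhibition of human MZ7-mel cells, measured by a cell viability assay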
Description: SANGER: Inhibition of human MZ7-mel cell growth in a cell viability assay.

[30] = test system: Mo; assay type: functional, cell-based
Description: SANGER: Inhibition of human Mo-T cell growth in a cell viability assay.

[31] = test system: NB5; assay type: functional, cell-based;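 further: growth inhibition of NB5 cells, read out as cell viability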
Description: SANGER: Inhibition of human NB5 cell growth in a cell viability assay.

[32] = test system: NB6; assay type: functional, cell-based;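 further: growth inhibition of NB6 cells, read out by a cell viability assay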
Description: SANGER: Inhibition of human NB6 cell growth in a cell viability assay.

[33] = test system: NCI-H1395; assay type: functional, cell-based;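 further: cell viability assay read-out quantifying reduced proliferation of human NCI-H1395 cells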
Description: SANGER: Inhibition of human NCI-H1395 cell growth in a cell viability assay.

[34] = test system: NCI-H1650; assay type: functional, cell-based;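 further: growth inhibition of human NCI-H1650 cells measured by a cell viability assay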
Description: SANGER: Inhibition of human NCI-H1650 cell growth in a cell viability assay.

[35] = test system: NCI-H292; assay type: functional, cell-based;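 further: growth inhibition of NCI-H292 cells, read out with a cell viability assay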
Description: SANGER: Inhibition of human NCI-H292 cell growth in a cell viability assay.

[36] = test system: NCI-H358; assay type: functional, cell-based;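 further: growth inhibition of NCI-H358 human cells, read out with a cell viability assay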
Description: SANGER: Inhibition of human NCI-H358 cell growth in a cell viability assay.

[37] = test system: NCI-H526; assay type: functional, cell-based;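 further: growth inhibition of the human NCI-H526 cell line, measured by a cell viability assay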
Description: SANGER: Inhibition of human NCI-H526 cell growth in a cell viability assay.

[38] = test system: NCI-H720; assay type: functional, cell-based;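 further: growth inhibition of human NCI-H720 cells determined by a cell viability assay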
Description: SANGER: Inhibition of human NCI-H720 cell growth in a cell viability assay.

[39] = test system: NEC8; assay type: functional, cell-based;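 further: growth inhibition of human NEC8 cells, read out by a cell viability assay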
Description: SANGER: Inhibition of human NEC8 cell growth in a cell viability assay.

[40] = test system: NKM-1; assay type: functional, cell-based;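 further: growth inhibition of NKM-1 cells, read out with a cell viability assay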
Description: SANGER: Inhibition of human NKM-1 cell growth in a cell viability assay.

[41] = test system: PFSK-1; assay type: functional, cell-based;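 further: cell viability assay measuring how strongly compounds suppress growth of human PFSK-1 cells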
Description: SANGER: Inhibition of human PFSK-1 cell growth in a cell viability assay.

[42] = test system: RH-1; assay type: functional, cell-based;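 further: growth inhibition of human RH-1 cells, read out with a cell viability assay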
Description: SANGER: Inhibition of human RH-1 cell growth in a cell viability assay.

[43] = test system: RPMI-8866; assay type: functional, cell-based
Description: SANGER: Inhibition of human RPMI-8866 cell growth in a cell viability assay.

[44] = test system: RS4-11; assay type: functional, cell-based;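 further: growth inhibition of RS4-11 cells, read out by a cell viability assay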
Description: SANGER: Inhibition of human RS4-11 cell growth in a cell viability assay.

[45] = test system: SCC-15; assay type: functional, cell-based;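 further: growth inhibition of SCC-15 cells, read out with a cell viability assay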
Description: SANGER: Inhibition of human SCC-15 cell growth in a cell viability assay.

[46] = test system: SCC-9; assay type: functional, cell-based;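 further: Read-out is a cell viability assay, with values giving inhibition of cell growth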
Description: SANGER: Inhibition of human SCC-9 cell growth in a cell viability assay.

[47] = test system: SF-126; assay type: functional, cell-based;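 further: growth inhibition of human SF126 cells, read out with a cell viability assay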
Description: SANGER: Inhibition of human SF126 cell growth in a cell viability assay.

[48] = test system: SF-268; assay type: functional, cell-based;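 further: growth inhibition of SF-268 cells determined with a cell viability assay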
Description: SANGER: Inhibition of human SF268 cell growth in a cell viability assay.

[49] = test system: SK-N-FI; assay type: functional, cell-based;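 further: cell viability assay measuring growth inhibition of human SK-N-FI cells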
Description: SANGER: Inhibition of human SK-N-FI cell growth in a cell viability assay.

[50] = test system: SNB-75; assay type: functional, cell-based;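 further: cell viability assay measuring growth inhibition of human SNB-75 cells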
Description: SANGER: Inhibition of human SNB75 cell growth in a cell viability assay.

[51] = test system: SW780; assay type: functional, cell-based;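 further: growth inhibition of the cells, read out with a cell viability assay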
Description: SANGER: Inhibition of human SW780 cell growth in a cell viability assay.

[52] = test system: SW 962; assay type: functional, cell-based;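 further: growth inhibition of human SW962 cells, read out by a cell viability assay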
Description: SANGER: Inhibition of human SW962 cell growth in a cell viability assay.

[53] = test system: SiHa; assay type: functional, cell-based;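 further: Viability-based readout of growth inhibition in SiHa cells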
Description: SANGER: Inhibition of human SiHa cell growth in a cell viability assay.

[54] = test system: AM-38; assay type: functional, cell-based;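 further: growth inhibition of AM-38 cells of human origin, read out by a cell viability assay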
Description: SANGER: Inhibition of human AM-38 cell growth in a cell viability assay.

[55] = test system: ATN-1; assay type: functional, cell-based;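 further: growth inhibition of human ATN-1 cells, read out with a cell viability assay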
Description: SANGER: Inhibition of human ATN-1 cell growth in a cell viability assay.

[56] = test system: BE-13; assay type: functional, cell-based;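 further: growth inhibition of human BE-13 cells, measured with a cell viability assay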
Description: SANGER: Inhibition of human BE-13 cell growth in a cell viability assay.

[57] = test system: BT-474; assay type: functional, cell-based
Description: SANGER: Inhibition of human BT-474 cell growth in a cell viability assay.

[58] = test system: Becker; assay type: functional, cell-based
Description: SANGER: Inhibition of human Becker cell growth in a cell viability assay.

[59] = test system: C2BBe1; assay type: functional, cell-based
Description: SANGER: Inhibition of human C2BBe1 cell growth in a cell viability assay.

[60] = test system: CAL-33; assay type: functional, cell-based
Description: SANGER: Inhibition of human CAL-33 cell growth in a cell viability assay.

[61] = test system: TE-12; assay type: functional, cell-based
Description: SANGER: Inhibition of human TE-12 cell growth in a cell viability assay.

[62] = test system: TGBC24TKB; assay type: functional, cell-based
Description: SANGER: Inhibition of human TGBC24TKB cell growth in a cell viability assay.

[63] = test system: VA-ES-BJ; assay type: functional, cell-based
Description: SANGER: Inhibition of human VA-ES-BJ cell growth in a cell viability assay.

[64] = test system: COLO-684; assay type: functional, cell-based
Description: SANGER: Inhibition of human COLO-684 cell growth in a cell viability assay.

## C[C@]12O[C@H](C[C@]1(O)CO)n1c3ccccc3c3c4c(c5c6ccccc6n2c5c31)CNC4=O [LESTAURTINIB]
[1]
  IC50: > 2000 nM
[2]
  IC50: 189 nM
[3]
  IC50: 971 nM
[4]
  IC50: 802 nM
[5]
  IC50: 97.8 nM
[6]
  IC50: > 2000 nM
[7]
  IC50: 266 nM
[8]
  IC50: 439 nM
[9]
  IC50: > 2000 nM
[10]
  IC50: 174 nM
[11]
  IC50: 922 nM
[12]
  IC50: 554 nM
[13]
  IC50: 298 nM
[14]
  IC50: 649 nM
[15]
  IC50: 196 nM
[16]
  IC50: > 2000 nM
[17]
  IC50: 16.8 nM
[18]
  IC50: > 2000 nM
[19]
  IC50: 1480 nM
[20]
  IC50: > 2000 nM
[21]
  IC50: > 2000 nM
[22]
  IC50: > 2000 nM
[23]
  IC50: 1020 nM
[24]
  IC50: 456 nM
[25]
  IC50: 72.1 nM
[26]
  IC50: > 2000 nM
[27]
  IC50: 439 nM
[28]
  IC50: < 7.81 nM
[29]
  IC50: 603 nM
[30]
  IC50: > 2000 nM
[31]
  IC50: 471 nM
[32]
  IC50: 936 nM
[33]
  IC50: 281 nM
[34]
  IC50: > 2000 nM
[35]
  IC50: 91.4 nM
[36]
  IC50: > 2000 nM
[37]
  IC50: > 2000 nM
[38]
  IC50: 48.5 nM
[39]
  IC50: 268 nM
[40]
  IC50: 47.3 nM
[41]
  IC50: > 2000 nM
[42]
  IC50: 149 nM
[43]
  IC50: 123 nM
[44]
  IC50: 61.9 nM
[45]
  IC50: > 2000 nM
[46]
  IC50: 1210 nM
[47]
  IC50: 273 nM
[48]
  IC50: 326 nM
[49]
  IC50: 1100 nM
[50]
  IC50: 1490 nM
[51]
  IC50: 327 nM
[52]
  IC50: 154 nM
[53]
  IC50: > 2000 nM
[54]
  IC50: > 2000 nM
[55]
  IC50: 104 nM
[56]
  IC50: 280 nM
[57]
  IC50: > 2000 nM
[58]
  IC50: 724 nM
[59]
  IC50: 361 nM
[60]
  IC50: 730 nM
[61]
  IC50: > 2000 nM
[62]
  IC50: > 2000 nM
[63]
  IC50: 389 nM
[64]
  IC50: 853 nM

## C[C@]1(c2nc3c(C(N)=O)cccc3[nH]2)CCCN1 [VELIPARIB]
[1]
  IC50: > 5000 nM
[2]
  IC50: > 5000 nM
[3]
  IC50: > 5000 nM
[4]
  IC50: > 5000 nM
[5]
  IC50: > 5000 nM
[6]
  IC50: > 5000 nM
[7]
  IC50: > 5000 nM
[8]
  IC50: > 5000 nM
[9]
  IC50: > 5000 nM
[10]
  IC50: > 5000 nM
[11]
  IC50: > 5000 nM
[12]
  IC50: > 5000 nM
[13]
  IC50: > 5000 nM
[14]
  IC50: > 5000 nM
[15]
  IC50: > 5000 nM
[16]
  IC50: > 5000 nM
[17]
  IC50: > 5000 nM
[18]
  IC50: > 5000 nM
[19]
  IC50: > 5000 nM
[20]
  IC50: > 5000 nM
[21]
  IC50: > 5000 nM
[22]
  IC50: > 5000 nM
[23]
  IC50: > 5000 nM
[24]
  IC50: > 5000 nM
[25]
  IC50: > 5000 nM
[26]
  IC50: > 5000 nM
[27]
  IC50: > 5000 nM
[28]
  IC50: > 5000 nM
[29]
  IC50: > 5000 nM
[30]
  IC50: > 5000 nM
[31]
  IC50: > 5000 nM
[32]
  IC50: > 5000 nM
[33]
  IC50: > 5000 nM
[34]
  IC50: > 5000 nM
[35]
  IC50: > 5000 nM
[36]
  IC50: > 5000 nM
[37]
  IC50: > 5000 nM
[38]
  IC50: > 5000 nM
[39]
  IC50: > 5000 nM
[40]
  IC50: > 5000 nM
[41]
  IC50: > 5000 nM
[42]
  IC50: > 5000 nM
[43]
  IC50: > 5000 nM
[44]
  IC50: > 5000 nM
[45]
  IC50: > 5000 nM
[46]
  IC50: > 5000 nM
[47]
  IC50: > 5000 nM
[48]
  IC50: > 5000 nM
[49]
  IC50: > 5000 nM
[50]
  IC50: > 5000 nM
[51]
  IC50: > 5000 nM
[52]
  IC50: > 5000 nM
[53]
  IC50: > 5000 nM
[54]
  IC50: > 5000 nM
[55]
  IC50: > 5000 nM
[56]
  IC50: > 5000 nM
[57]
  IC50: > 5000 nM
[58]
  IC50: > 5000 nM
[59]
  IC50: > 5000 nM
[60]
  IC50: > 5000 nM
[61]
  IC50: > 5000 nM
[62]
  IC50: > 5000 nM
[63]
  IC50: > 5000 nM
[64]
  IC50: > 5000 nM
